Where two headings read alike, the source gives them in different places.
Key:
[1] = Solubility of salts in water (HPLC); format: physicochemical
Experimental: The formulator can determine the solubility of the pharmaceutically acceptable salts of the disclosed inhibitors by any method desirable. The following is a non-limiting example of a procedure for evaluating the solubility of a salt of a disclosed inhibitor. A suspension of tert-butyl-{[1-(4-chlorobenzyl)-3-hydroxy-2-oxo-1,2-dihydropyridin-4-yl]methyl}-piperazine-1-carboxylate methanesulfonate (26.6 mg) in distilled deionized water (3.0 mL) is sonicated for 20 min with water bath temperature under 25° C. The suspension is filtered to remove any insoluble salt. The clear filtrate solution (200 μL) is diluted with distilled deionized water (800 μL) and subjected to HPLC analysis. The following are results for the pharmaceutically acceptable salts outlined in Table VII above.

[2] = test system: phosphoglycerate kinase (PGK) expression; assay: PGK expression in murine embryonic fibroblasts; format: cell-based; conditions: wild type murine embryonic fibroblasts; 1 μM, 10 μM (FIG. 12)
Experimental: FIG. 11 depicts the up regulation of phosphoglycerate kinase (PGK) expression in wild type murine embryonic fibroblasts as a result of treatment with compound a compound disclosed in Table VIII at dosages of 1 μM (E), 10 μM (F), and 50 μM (G) vs. wild type control (H) and the lack of up regulation of PGK expression in HIF-1 knock out cells as a result of treatment with a compound disclosed in Table VIII at dosages of 1 μM (A), 10 μM (B), and 50 μM (C) and HIF-1 knock out control (D). Both cell types were treated for 7 hours.

CC(C)(C)OC(=O)N1CCN(Cc2ccn(Cc3ccc(Cl)cc3)c(=O)c2O)CC1 [Compound A41, tert-butyl 4-{[1-(4-chlorobenzyl)-3-hydroxy-2-oxo-1,2-dihydropyridin-4-yl]methyl}piperazine-1-carboxylate]
Solubility ([1]; distilled deionized water, sonicated 20 min, under 25° C., HPLC, listed as Free base): ~1 µg/mL

O=c1c(O)cccn1Cc1cccc(Cl)c1 [Compound F2, 1-(3-chlorobenzyl)-3-hydroxypyridin-2(1H)-one]
up regulation of phosphoglycerate kinase (PGK) expression [2]: up regulation

CC(C)(C)OC(=O)N1CCN(Cc2ccn(Cc3ccc(Cl)cc3)c(=O)c2O)CC1 [hydrogensulfonate, tert-butyl-{[1-(4-chlorobenzyl)-3-hydroxy-2-oxo-1,2-dihydropyridin-4-yl]methyl}-piperazine-1-carboxylate]
Solubility [1]: 13200 µg/mL

Source: patent publication US9278930B2, “Methods for increasing the stabilization of hypoxia inducible factor-α” (Aerpio Therapeutics Inc., priority 2009, dated 2016)
